From patent US9206162B2, “Triazole compounds that modulate Hsp90 activity” (Synta Pharmaceuticals Corp., priority 2006, dated 2015)

Tests used:
Her2 = test: Degradation of Her2 in BT-474 cells, Method 1 (Western blot); assay type: cell-based, human; details: 0.5 μM, overnight
Method: A. Cells and Cell Culture Human high-Her2 breast carcinoma BT474 (HTB-20), SK-BR-3 (HTB-30) and MCF-7 breast carcinoma (HTB-22) from American Type Culture Collection, VA, USA were grown in Dulbecco's modified Eagle's medium with 4 mM L-glutamine and antibiotics ([…] penicillin and 100 ug/ml streptomycine; GibcoBRL). To obtain exponential cell growth, cells were trypsinized, counted and seeded at a cell density of 0.5×10^6 cells/ml regularly, every 3 days. All experiments were performed on day 1 after cell passage. B. Degradation of her2 in Cells after Treatment with a Compound of the Invention
BT-474 cells are treated with 0.5 μM, 2 μM, or 5 μM of 17AAG (a positive control) or 0.5 μM, 2 μM, or 5 μM of a compound of the invention overnight in DMEM medium. After treatment, each cytoplasmic sample is prepared from 1×10^6 cells by incubation of cell lysis buffer (#9803, cell Signaling Technology) on ice for 10 minutes. The resulting supernatant used as the cytosol fractions is dissolved with sample buffer for SDS-PAGE and run on a SDS-PAGE gel, blotted onto a nitrocellulose membrane by using semi-dry transfer. Non-specific binding to nitrocellulose is blocked with 5% skim milk in TBS with 0.5% Tween at room temperature for 1 hour, then probed with anti-Her2/ErB2 mAb (rabbit IgG, #2242, Cell Signaling) and anti-Tubulin (T9026, Sigma) as housekeeping control protein. […]

Hsp90 = test: Degradation of Hsp90 client proteins, Method 2: IC50 for Her2 degradation / inhibition of Hsp90 (MV-4-11 cell survival, Cell Counting Kit-8); assay type: cell-based, human; details: Table 9, MV-4-11 cells, 72 hours, read-out: IC50 Range

Structure (SMILES) | degradation of Her2 (Her2) | IC50 (Hsp90) [nM]
C=CCNC1=C2C[C@@H](C)C[C@H](OC)[C@H](O)[C@@H](C)/C=C(\C)[C@H](OC(N)=O)[C@@H](OC)/C=C\C=C(/C)C(=O)NC(=CC1=O)C2=O [Compound 17AAG, 17-allylamino-17-demethoxygeldanamycin] | partial degradation | –
COCCN(C)c1ccc(-n2c(O)nnc2-c2cc(C(C)C)c(O)cc2O)c[n+]1[O-] [Compound 3d] | – | 180
